Measurements from paper PMC8596589 (Chembiochem : a European journal of chemical biology, 2021).
Entries after “also recorded” stand apart in the source; their conditions may differ.

Experiments:
Dop [1] = target: T1, Dop (Mycolicibacterium smegmatis, UniProt A0QZ49); test: biochemical; type: biochemical, M. smegmatis
T1 sequence (A0QZ49 1-498): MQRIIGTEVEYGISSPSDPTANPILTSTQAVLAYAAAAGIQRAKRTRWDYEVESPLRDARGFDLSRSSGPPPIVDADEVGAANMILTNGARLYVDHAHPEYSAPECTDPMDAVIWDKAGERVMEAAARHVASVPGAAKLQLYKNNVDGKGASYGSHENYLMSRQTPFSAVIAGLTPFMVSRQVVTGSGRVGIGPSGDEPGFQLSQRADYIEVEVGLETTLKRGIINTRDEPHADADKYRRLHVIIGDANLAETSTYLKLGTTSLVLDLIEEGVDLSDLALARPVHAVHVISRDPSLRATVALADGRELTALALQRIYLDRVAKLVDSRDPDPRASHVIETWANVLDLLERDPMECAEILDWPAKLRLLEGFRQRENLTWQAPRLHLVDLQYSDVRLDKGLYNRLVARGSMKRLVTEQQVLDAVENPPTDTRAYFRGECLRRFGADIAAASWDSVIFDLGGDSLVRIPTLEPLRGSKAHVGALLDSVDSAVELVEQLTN

PafA [2] = target: T2, PafA (Mycobacterium tuberculosis, UniProt P9WNU7); type: biochemical, Mtb; settings: 100 μM inhibitor; 50 nM PafA; 2 hours
T2 sequence (P9WNU7 1-452): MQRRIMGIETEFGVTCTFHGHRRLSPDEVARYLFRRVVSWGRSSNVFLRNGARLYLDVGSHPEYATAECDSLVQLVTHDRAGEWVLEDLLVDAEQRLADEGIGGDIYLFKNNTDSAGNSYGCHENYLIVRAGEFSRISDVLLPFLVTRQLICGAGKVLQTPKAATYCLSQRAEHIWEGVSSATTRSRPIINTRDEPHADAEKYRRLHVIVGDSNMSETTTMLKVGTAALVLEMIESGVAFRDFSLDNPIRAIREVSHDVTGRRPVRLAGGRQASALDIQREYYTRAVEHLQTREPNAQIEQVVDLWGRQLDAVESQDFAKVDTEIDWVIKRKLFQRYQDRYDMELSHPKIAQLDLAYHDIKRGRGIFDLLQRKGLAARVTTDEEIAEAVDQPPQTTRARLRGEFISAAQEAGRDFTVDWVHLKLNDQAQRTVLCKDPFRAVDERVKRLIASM

PafA [3] = target: T2, PafA; type: biochemical, Mtb; settings: 100 µM compound; 50 nM PafA; 2 hours
PafA [4] = target: T2, PafA; type: biochemical, Mtb; settings: 100 µM inhibitor; 250 nM FabD; 50 nM PafA; six hours
Dop [5] = target: T1, Dop; type: biochemical, M. smegmatis; settings: 100 μM inhibitor; 10 nM Dop; 250 nM FabD-Pup; 30 min
Dop [6] = target: T1, Dop; test: Jump-dilution assay; type: biochemical, M. smegmatis
Dop [7] = target: T1, Dop; test: ATP competition assay / KM of ATP for Dop; type: biochemical, M. smegmatis

Row | SMILES | IC50 (Dop [1]) [µM] | Inhibition of depupylation of FabD-Pup by PafA (PafA [2]) | Inhibition of pupylation of FabD by PafA (ligase activity) (PafA [4]) | other results
1 | COc1cc(CC(C#N)C(O)c2ccccc2)cc(I)c1O (stereo not shown) [Compound 14] |  |  |  | Dop inhibition in the fluorogenic assay (in words) (Dop [1]; Pup(33–63)-Glu(AMC) substrate, highest conc. 100 µM): complete loss of activity
2 | COc1cc(/C=C(\C#N)C(O)c2ccccc2)cc(I)c1O (stereo not shown) [Compound 13] | 57 |  |  | 
3 | COc1cc(/C=C(\C#N)C(=O)c2ccccc2)cc(I)c1O [Compound 5a] | 5.4 ± 0.5 |  |  | 
4 | N#C/C(=C\c1cc(O)c(O)c(I)c1)C(=O)c1ccc(O)c(O)c1 [Compound 10k] | 0.29 ± 0.01 | completely inhibited | completely inhibited | Inhibition of depupylation of Ino1-Pup by PafA (PafA [3]): fully inhibited
5 | N#C/C(=C\c1ccc(O)c(O)c1)C(=O)c1ccc(O)c(O)c1 [Compound 2, Tyrphostin AG538] |  | completely inhibited; also recorded: fully inhibits; also recorded: efficiently inhibit | completely inhibited; also recorded: fully inhibits; also recorded: efficiently inhibit | Inhibition of depupylation of FabD-Pup by Dop (Dop [5]): failed to inhibit; also recorded: did not inhibit; also recorded: leaving Dop activity intact; Inhibition of depupylation of Ino1-Pup by PafA (PafA [3]): partially inhibited
6 | COc1cc(/C=C/C(=O)c2ccccc2)cc(I)c1O [Compound 12] | 29 |  |  | Decrease in potency compared to 1 (Dop [1]; ratio of IC50 values vs compound 1): 60 fold
7 | COc1cc(/C=C(\C#N)C(=O)c2ccc(O)c(O)c2)cc(I)c1O [Compound 1, I-OMe-Tyrphostin AG538] |  | partly inhibited | partly inhibited | IC50 at 10-fold increased Dop concentration (ratio test) (Dop [1]): 0.70 ± 0.03 μM; IC50 at routine Dop concentration (ratio test) (Dop [1]; 30 nM Dop): 0.26 ± 0.06 µM; Inhibition of depupylation of FabD-Pup by Dop (Dop [5]): incompletely inhibited; Inhibition of depupylation of Ino1-Pup by PafA (PafA [3]): partially inhibited; Dop activity after 100-fold dilution (jump-dilution) (Dop [6]): Complete restoration of Dop activity; Change of IC50 with ATP concentration (Dop [7]; eight ATP concentrations, 0.1–6.4 mM): did not significantly increase
8 | COc1cc(/C=C(\C#N)C(=O)c2ccc(O)c(O)c2)cc(Br)c1O [Compound 10i] | 2.7 ± 0.2 | partly inhibited | partly inhibited | 
9 | Nc1ncnc2c1ncn2[C@@H]1O[C@H](COP(=O)(O)OP(=O)(O)OP(=O)(O)O)[C@@H](O)[C@H]1O [ATP] |  |  |  | Km (Dop [7]; read-out: KM of ATP for Dop, Michaelis-Menten curve of Dop vs. [ATP]): 320 ± 30 µM
10 | COc1cc(/C=C(\C#N)C(=O)c2ccc(O)c(O)c2)cc([N+](=O)[O-])c1O [Compound 10b] | 4.1 ± 0.1 |  |  | 
11 | COc1cc(/C=C(\C#N)C(=O)c2ccc(O)c(O)c2)ccc1O [Compound 10a] | > 100 |  |  | 
12 | N#C/C(=C\c1ccccc1)C(=O)c1ccccc1 [Compound 5b] | > 100 |  |  | 
